The record followed here is US7947741B2, “Use and administration of bacterial efflux pump inhibitors” (Mpex Pharmaceuticals, Inc., priority 2004, dated 2011).

For experiment [1], the system named is P. aeruginosa PAM1723 (MexAB-OprM overexpressed). In kind it is cell-based, Pseudomonas aeruginosa. To be noted: for MIC, No Pentamidine / MIC, Pentamidine (40 μg/ml): PAM1723 (MexAB-OprM overexpressed); for MIC, Pentamidine (40 μg/ml): in the presence of pentamidine 40 μg/ml; for decrease of the MIC by pentamidine: PAM1723, pentamidine 40 μg/ml.
In experiment [2] the test system is P. aeruginosa PAM1154 (MexAB-OprM deleted). The class given is cell-based, Pseudomonas aeruginosa.
In experiment [3] the test system is P. aeruginosa PAM1020 (wt, basal level of MexAB-OprM). Nature of the experiment: Levofloxacin potentiation checkerboard assay (broth microdilution). In kind it is cell-based, Pseudomonas aeruginosa. To be noted: PAM1020; for MIC: Pseudomonas aeruginosa, inhibitor alone, read-out: MIC* (MIC for the efflux pump inhibitor). How it is done: (§1) Stock solutions were further diluted, according to the needs of a particular assay, in Mueller Hinton Broth (MHB). Stock solution was stored at −80° C.
(§2) The checkerboard assay was performed in microtiter plates. […] The result of these manipulations is that each well of the microtiter plate contains a unique combination of concentrations of the two agents. The assay was performed in MHB with a final bacterial inoculum of 5×10^5 CFU/ml (from an early-log phase culture). Microtiter plates were incubated during 20 h at 35° C. and were read using a microtiterplate reader (Molecular Devices) at 650 nm as well as visual observation using a microtiter plate reading mirror.
(§3) The test organisms used was PAM1020, which is a wild type strain of P. aeruginosa expressing the basal level of MexAB-OprM, as well as PAM1723, PAM1738, and PAM1753, overexpressing the MexAB-OprM, MexCD-OprJ, and MexEF-OprN pump, respectively.

Experiment [4] relates to P. aeruginosa PAM1753 (nfxC, overexpressing MexEF-OprN). Described as above. The class given is cell-based, Pseudomonas aeruginosa. To be noted: for Levofloxacin MIC in the presence of inhibitor: PAM1753; for MIC: Pseudomonas aeruginosa, read-out: MIC* (MIC for the efflux pump inhibitor). As for the experimental part:
as §1, §2, §3

In experiment [5] the test system is P. aeruginosa PAM1738 (nfxB, overexpressing MexCD-OprJ). Nature of the experiment: microbe, parasite or virus in culture. To be noted: for Levofloxacin MIC in the presence of inhibitor: PAM1738; for MIC: Pseudomonas aeruginosa, read-out: MIC* (MIC for the efflux pump inhibitor). The class given is cell-based, Pseudomonas aeruginosa. How it is done:
as §1, §2, §3

The test system of experiment [6] is P. aeruginosa PAM1723 (nalB, overexpressing MexAB-OprM). Nature of the experiment: microbe, parasite or virus in culture. The class given is cell-based, Pseudomonas aeruginosa. The settings on record: for Levofloxacin MIC in the presence of inhibitor: PAM1723; for MIC: Pseudomonas aeruginosa, read-out: MIC* (MIC for the efflux pump inhibitor), PAM1723, inhibitor alone. How it is done: as §1, §2, §3
Efflux pump inhibitory activity of several commercially available diamidine analogs was evaluated using the checkerboard assay of Example 1 against the strain of P. aeruginosa overexpressing the MexAB-OprM efflux pump.

In experiment [7] the target is MexAB-OprM-mediated efflux of Leu-Nap, PAM1723 cells (Pseudomonas aeruginosa, UniProt P52002). Kind of experiment: Leu-Nap accumulation assay. In kind it is cell-based. The settings on record: Leu-Nap 100 μg/ml.
Experiment [8] concerns P. aeruginosa PAM1626 (lacks all the three efflux pumps). Nature of the experiment: microbe, parasite or virus in culture. The settings on record: for Levofloxacin MIC in the presence of inhibitor: PAM1626; for MIC: Pseudomonas aeruginosa, read-out: MIC* (MIC for the efflux pump inhibitor). The class given is cell-based, Pseudomonas aeruginosa.

In brackets after ≈: the same amount, converted by molar mass. A value given as a limit tells only on which side of the number the result lay.

Sequence of MexAB-OprM-mediated efflux of Leu-Nap, PAM1723 cells (Q51487 18-485): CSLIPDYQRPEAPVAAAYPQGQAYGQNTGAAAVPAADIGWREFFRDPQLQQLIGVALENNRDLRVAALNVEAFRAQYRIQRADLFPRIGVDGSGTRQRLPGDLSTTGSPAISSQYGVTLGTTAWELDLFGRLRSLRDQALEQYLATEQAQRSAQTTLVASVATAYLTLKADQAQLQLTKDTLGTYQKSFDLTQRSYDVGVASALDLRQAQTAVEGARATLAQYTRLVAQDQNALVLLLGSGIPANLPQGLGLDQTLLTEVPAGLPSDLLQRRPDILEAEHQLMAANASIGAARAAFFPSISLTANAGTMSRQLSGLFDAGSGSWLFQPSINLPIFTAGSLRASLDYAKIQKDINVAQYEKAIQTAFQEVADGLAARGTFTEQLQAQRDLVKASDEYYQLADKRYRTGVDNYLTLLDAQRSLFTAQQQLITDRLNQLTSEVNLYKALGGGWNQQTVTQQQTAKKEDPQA
Sequence of MexAB-OprM-mediated efflux of Leu-Nap, PAM1723 cells (P52002 whole entry): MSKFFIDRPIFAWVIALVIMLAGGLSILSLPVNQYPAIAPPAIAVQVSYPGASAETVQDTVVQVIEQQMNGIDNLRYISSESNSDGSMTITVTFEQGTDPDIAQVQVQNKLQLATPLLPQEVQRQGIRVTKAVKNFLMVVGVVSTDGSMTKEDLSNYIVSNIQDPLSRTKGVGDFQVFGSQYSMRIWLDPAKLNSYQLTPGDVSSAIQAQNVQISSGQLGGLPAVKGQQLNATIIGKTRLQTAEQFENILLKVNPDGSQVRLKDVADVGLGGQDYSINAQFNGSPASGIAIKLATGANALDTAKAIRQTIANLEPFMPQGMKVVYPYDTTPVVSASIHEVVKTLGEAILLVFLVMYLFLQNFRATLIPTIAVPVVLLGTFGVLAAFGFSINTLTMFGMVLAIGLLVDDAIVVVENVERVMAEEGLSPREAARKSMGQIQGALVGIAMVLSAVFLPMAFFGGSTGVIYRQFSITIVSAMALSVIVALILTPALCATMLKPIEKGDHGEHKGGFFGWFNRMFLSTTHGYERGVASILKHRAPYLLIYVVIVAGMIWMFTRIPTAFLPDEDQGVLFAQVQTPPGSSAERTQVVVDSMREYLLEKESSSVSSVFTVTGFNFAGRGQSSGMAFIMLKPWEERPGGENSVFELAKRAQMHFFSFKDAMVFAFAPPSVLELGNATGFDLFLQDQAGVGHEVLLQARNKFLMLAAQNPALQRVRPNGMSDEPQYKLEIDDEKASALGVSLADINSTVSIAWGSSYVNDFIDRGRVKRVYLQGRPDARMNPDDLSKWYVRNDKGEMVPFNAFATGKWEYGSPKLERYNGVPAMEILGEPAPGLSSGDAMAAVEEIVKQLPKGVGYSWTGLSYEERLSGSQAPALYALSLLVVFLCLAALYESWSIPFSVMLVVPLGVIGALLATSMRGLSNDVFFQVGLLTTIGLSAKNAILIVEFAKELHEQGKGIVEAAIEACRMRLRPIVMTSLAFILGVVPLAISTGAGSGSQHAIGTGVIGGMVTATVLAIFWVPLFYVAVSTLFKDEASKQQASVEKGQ
Sequence of MexAB-OprM-mediated efflux of Leu-Nap, PAM1723 cells (P52477 24-383, further chain): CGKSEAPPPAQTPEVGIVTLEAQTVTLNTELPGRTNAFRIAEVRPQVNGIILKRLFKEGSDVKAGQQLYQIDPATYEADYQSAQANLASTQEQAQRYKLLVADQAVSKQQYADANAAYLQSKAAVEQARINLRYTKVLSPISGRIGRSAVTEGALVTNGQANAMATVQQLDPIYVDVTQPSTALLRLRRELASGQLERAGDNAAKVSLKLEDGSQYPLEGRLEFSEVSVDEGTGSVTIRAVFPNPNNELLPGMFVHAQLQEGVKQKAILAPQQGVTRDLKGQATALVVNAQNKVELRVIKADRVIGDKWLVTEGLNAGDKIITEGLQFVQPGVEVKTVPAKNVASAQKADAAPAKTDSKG

Consider `CC[C@H]1OC(=O)[C@H](C)[C@@H](O[C@H]2C[C@@](C)(OC)[C@@H](O)[C@H](C)O2)[C@H](C)[C@@H](O[C@@H]2O[C@H](C)C[C@H](N(C)C)[C@H]2O)[C@](C)(O)C[C@@H](C)CN(C)[C@H](C)[C@@H](O)[C@]1(C)O` [Azithro, azithromycin], for which, in experiment [1], the MIC, No Pentamidine was determined as 64 µg/mL (≈ 85.4 µM); the “MIC, Pentamidine (40 μg/ml)” value stood at 1; the “decrease of the MIC by pentamidine” value worked out at 64 fold. This compound also returned an MIC, No Pentamidine in experiment [2] of 0.5 µg/mL (≈ 0.668 µM).

In the case of `O=C(N[C@H](CO)[C@H](O)c1ccc([N+](=O)[O-])cc1)C(Cl)Cl` [Cm, chloramphenicol], in experiment [1], the MIC, No Pentamidine came out at 128 µg/mL (≈ 396 µM); the “MIC, Pentamidine (40 μg/ml)” value is reported as 8; the “decrease of the MIC by pentamidine” value was determined as 16 fold. In experiment [2], this compound had an MIC, No Pentamidine of 1 µg/mL (≈ 3.09 µM).

Consider `N=C(N)c1ccc(OCCCOc2ccc(C(=N)N)cc2Br)c(Br)c1` [Dibromopropamidine, dibromopropamidine], for which the “Levofloxacin MIC in the presence of inhibitor” value (“Levofloxacin MIC … of inhibitor” for short) in experiment [3] (inhibitor 1.25 μg/ml) came out at 0.25 µg/mL; in experiment [3] (inhibitor 2.5 μg/ml), 0.25 µg/mL; in experiment [3] (inhibitor 5 μg/ml), 0.125 µg/mL; in experiment [3] (inhibitor 10 μg/ml), 0.06 µg/mL; in experiment [3] (inhibitor 20 μg/ml), 0.03 µg/mL; in experiment [3] (inhibitor 40 μg/ml) it was 0.03 µg/mL. Besides, the “Levofloxacin MIC … of inhibitor” value in experiment [4] (inhibitor 1.25 μg/ml) is 2 µg/mL; in experiment [4] (inhibitor 2.5 μg/ml) it was 1 µg/mL; in experiment [4] (inhibitor 5 μg/ml), 0.5 µg/mL; in experiment [4] (inhibitor 10 μg/ml), 0.125 µg/mL; in experiment [5] (inhibitor 1.25 μg/ml), 0.5 µg/mL; in experiment [5] (inhibitor 2.5 μg/ml), 0.25 µg/mL. Besides, the “Levofloxacin MIC … of inhibitor” value was 0.125 µg/mL in experiment [5] (inhibitor 5 μg/ml); 0.06 µg/mL in experiment [5] (inhibitor 10 μg/ml); 0.03 µg/mL in experiment [5] (inhibitor 20 μg/ml); 0.03 µg/mL in experiment [5] (inhibitor 40 μg/ml); 2 µg/mL in experiment [6] (inhibitor 1.25 μg/ml); 1 µg/mL in experiment [6] (inhibitor 2.5 μg/ml). For the same compound, the “Levofloxacin MIC … of inhibitor” value in experiment [6] (inhibitor 5 μg/ml) came out at 0.5 µg/mL; in experiment [6] (inhibitor 10 μg/ml), 0.125 µg/mL; in experiment [6] (inhibitor 20 μg/ml), 0.06 µg/mL; in experiment [6] (inhibitor 40 μg/ml), 0.06 µg/mL; in experiment [8] (inhibitor 1.25 μg/ml), 0.0075 µg/mL; in experiment [8] (inhibitor 2.5 μg/ml), 0.007 µg/mL. Further, the MIC in experiment [3] came to 80 µg/mL; in experiment [4], 20 µg/mL; in experiment [5], 80 µg/mL; in experiment [6] it was 80 µg/mL; in experiment [8] it was 5 µg/mL (≈ 10.6 µM). Moreover, the “inhibitor concentration at which rate of Leu-Nap uptake in PAM1723 and PAM1626 is the same (complete inhibition of efflux)” value (“inhibitor concentration at which rate” below) in experiment [7] worked out at 20 µg/mL.

As to `CC[C@H]1OC(=O)[C@H](C)[C@@H](O[C@H]2C[C@@](C)(OC)[C@@H](O)[C@H](C)O2)[C@H](C)[C@@H](O[C@@H]2O[C@H](C)C[C@H](N(C)C)[C@H]2O)[C@](C)(O)C[C@@H](C)C(=O)[C@H](C)[C@@H](O)[C@]1(C)O` [Erm, erythromycin], in experiment [1], the “MIC, Pentamidine (40 μg/ml)” value is 64 and the “decrease of the MIC by pentamidine” value is on record as 4 fold. For the same compound, in experiment [2], the MIC, No Pentamidine was found to be 8 µg/mL (≈ 10.9 µM).

In the case of `N=C(N)c1ccc(OCCCCCCOc2ccc(C(=N)N)cc2)cc1` [Hexamidine, hexamidine], the “Levofloxacin MIC … of inhibitor” value in experiment [3] (inhibitor 1.25 μg/ml) amounted to 0.125 µg/mL; in experiment [3] (inhibitor 2.5 μg/ml), 0.125 µg/mL; in experiment [3] (inhibitor 5 μg/ml) it was 0.03 µg/mL; in experiment [3] (inhibitor 10 μg/ml), 0.007 µg/mL; in experiment [4] (inhibitor 1.25 μg/ml), 2 µg/mL; in experiment [4] (inhibitor 2.5 μg/ml) it was 2 µg/mL. Further, the “Levofloxacin MIC … of inhibitor” value was 1 µg/mL in experiment [4] (inhibitor 5 μg/ml); 0.25 µg/mL in experiment [4] (inhibitor 10 μg/ml); 0.5 µg/mL in experiment [5] (inhibitor 1.25 μg/ml); 0.5 µg/mL in experiment [5] (inhibitor 2.5 μg/ml); 0.25 µg/mL in experiment [5] (inhibitor 5 μg/ml); 0.06 µg/mL in experiment [5] (inhibitor 10 μg/ml). The “Levofloxacin MIC … of inhibitor” value is 0.015 µg/mL in experiment [5] (inhibitor 20 μg/ml); 0.007 µg/mL in experiment [5] (inhibitor 40 μg/ml); 2 µg/mL in experiment [6] (inhibitor 1.25 μg/ml); 1 µg/mL in experiment [6] (inhibitor 2.5 μg/ml); 1 µg/mL in experiment [6] (inhibitor 5 μg/ml); 0.125 µg/mL in experiment [6] (inhibitor 10 μg/ml). The “Levofloxacin MIC … of inhibitor” value was determined as 0.015 µg/mL in experiment [6] (inhibitor 20 μg/ml) and 0.007 µg/mL in experiment [8] (inhibitor 1.25 μg/ml). The MIC in experiment [3] stood at 20 µg/mL; in experiment [4], 20 µg/mL; in experiment [5], 80 µg/mL; in experiment [6] it was 40 µg/mL; in experiment [8], 2.5 µg/mL (≈ 7.05 µM). Besides, the “inhibitor concentration at which rate” value in experiment [7] is 20 µg/mL.

In the case of `N=C(N)c1ccc(/N=N/Nc2ccc(C(=N)N)cc2)cc1` [MP 601206], the “Levofloxacin MIC … of inhibitor” value in experiment [6] (inhibitor 1.25 μg/ml) amounted to 2 µg/mL; in experiment [6] (inhibitor 2.5 μg/ml), 2 µg/mL; in experiment [6] (inhibitor 5 μg/ml) it was 1 µg/mL; in experiment [6] (inhibitor 10 μg/ml) it was 1 µg/mL; in experiment [6] (inhibitor 20 μg/ml), 0.5 µg/mL; in experiment [6] (inhibitor 40 μg/ml), 0.06 µg/mL. For the same compound, the MIC in experiment [6] came out at 80 µg/mL.

Consider `Cl.Cl.N=C(N)c1cccc(NC(=O)Nc2cccc(C(=N)N)c2)c1` [MP 601319], for which the “Levofloxacin MIC … of inhibitor” value in experiment [6] (inhibitor 1.25 μg/ml) was 2 µg/mL; in experiment [6] (inhibitor 2.5 μg/ml) it was 2 µg/mL; in experiment [6] (inhibitor 5 μg/ml), 2 µg/mL; in experiment [6] (inhibitor 10 μg/ml) it was 2 µg/mL; in experiment [6] (inhibitor 20 μg/ml) it was 1 µg/mL; in experiment [6] (inhibitor 40 μg/ml) it was 0.25 µg/mL. Besides, the “Levofloxacin MIC … of inhibitor” value in experiment [6] (inhibitor 80 μg/ml) turned out to be 0.125 µg/mL. The MIC in experiment [6] was above 80 µg/mL.

As for `N=C(N)c1ccc(OCCCOc2ccc(C(=N)N)cc2)cc1` [Propamidine, propamidine], the “Levofloxacin MIC … of inhibitor” value in experiment [3] (inhibitor 1.25 μg/ml) came out at 0.25 µg/mL; in experiment [3] (inhibitor 2.5 μg/ml), 0.125 µg/mL; in experiment [3] (inhibitor 5 μg/ml), 0.125 µg/mL; in experiment [3] (inhibitor 10 μg/ml) it was 0.06 µg/mL; in experiment [3] (inhibitor 20 μg/ml), 0.03 µg/mL; in experiment [4] (inhibitor 1.25 μg/ml) it was 4 µg/mL. Further, the “Levofloxacin MIC … of inhibitor” value in experiment [4] (inhibitor 2.5 μg/ml) is 2 µg/mL; in experiment [5] (inhibitor 1.25 μg/ml) it was 0.5 µg/mL; in experiment [5] (inhibitor 2.5 μg/ml), 0.5 µg/mL; in experiment [5] (inhibitor 5 μg/ml), 0.25 µg/mL; in experiment [5] (inhibitor 10 μg/ml) it was 0.125 µg/mL; in experiment [5] (inhibitor 20 μg/ml) it was 0.015 µg/mL. The “Levofloxacin MIC … of inhibitor” value in experiment [6] (inhibitor 1.25 μg/ml) came to 2 µg/mL; in experiment [6] (inhibitor 2.5 μg/ml), 2 µg/mL; in experiment [6] (inhibitor 5 μg/ml), 1 µg/mL; in experiment [6] (inhibitor 10 μg/ml), 0.5 µg/mL; in experiment [6] (inhibitor 20 μg/ml), 0.25 µg/mL; in experiment [8] (inhibitor 1.25 μg/ml), 0.015 µg/mL. The “Levofloxacin MIC … of inhibitor” value in experiment [8] (inhibitor 2.5 μg/ml) and in experiment [8] (inhibitor 5 μg/ml) was 0.007 µg/mL each time. Further, the MIC in experiment [3] worked out at 40 µg/mL; in experiment [4], 5 µg/mL; in experiment [5] it was 40 µg/mL; in experiment [6], 40 µg/mL; in experiment [8] it was 10 µg/mL (≈ 32 µM). Further, the “inhibitor concentration at which rate” value in experiment [7] turned out to be 160 µg/mL.
